Results reported in US11331299B2, “Medicinal use of serrulatane diterpenes” (The University of Sydney, priority 2016, dated 2022).
Where two headings read alike, the source gives them in different places.

Tested on: 280 human cancer cell lines
Test: OncoPanel cell proliferation assay (10-day)
Format: cell-based
Settings: Homo sapiens; for GI50: read-out: Cell Count GI50; for IC50: read-out: Cell Count IC50; for EC50: read-out: Cell Count EC50
[1] = KHOS-240S, Soft Tissue - Osteosarcoma
[2] = ME-180, ME-180, Female GU - Ovary
[3] = MG-63, MG-63, Soft Tissue - Osteosarcoma
[4] = MHH-PREB-1, MHH-PREB-1, Leukemia
[5] = MIA PaCa-2, Mia PaCa-2, Pancreas
[6] = MS751, MS751, Female GU - Ovary
[7] = Malme-3M, MALME3M, Skin (Melanoma)
[8] = NCI-H292, NCI-H292, Lung - NSCLC
[9] = NCI-H441, NCIH441, Lung - NSCLC
[10] = NCI-H460, NCI-H460, Lung - NSCLC
[11] = NCI-H520, NCI-H520, Lung - NSCLC
[12] = NCI-H596, NCI-H596, Lung - NSCLC
[13] = NCI-H661, NCI-H661, Lung - NSCLC
[14] = NTERA-2-cl-D1, NTERA-2 cl.D1, Testis
[15] = OVCAR-3, OVCAR3, Female GU - Ovary
[16] = RPMI-7951, RPMI-7951, Skin (Melanoma)
[17] = SAOS-2, SaOS2, Soft Tissue - Osteosarcoma

CC(C)=CCC[C@H](CO)[C@@H]1CC[C@@H](C)c2c1cc(C)c(O)c2O [Compound 1, 7,8,18-trihydroxyserrulat-14-ene]
GI50 [1]: 950 nM
IC50 [1]: 950 nM
EC50 (KLE, Female GU - Uterus): 3700 nM
GI50 (KLE, Female GU - Uterus): 3560 nM
IC50 (KLE, Female GU - Uterus): 3820 nM
EC50 (KPL-1, KPL-1, Breast): 810 nM
GI50 (KPL-1, KPL-1, Breast): 810 nM
IC50 (KPL-1, KPL-1, Breast): 810 nM
EC50 (KU812, KU812, Leukemia): 2810 nM
GI50 (KU812, KU812, Leukemia): 2570 nM
IC50 (KU812, KU812, Leukemia): 2810 nM
EC50 (L-428, L-428, Lymphoma): 1080 nM
GI50 (L-428, L-428, Lymphoma): 1080 nM
IC50 (L-428, L-428, Lymphoma): 1090 nM
EC50 (LNCaP, Prostate): 3900 nM
GI50 (LNCaP, Prostate): 3470 nM
IC50 (LNCaP, Prostate): 3900 nM
EC50 (LS-123, LS123, Colon): 1130 nM
GI50 (LS-123, LS123, Colon): 1030 nM
IC50 (LS-123, LS123, Colon): 1160 nM
EC50 (LS-411N, LS411N, Colon): 8720 nM
GI50 (LS-411N, LS411N, Colon): 8510 nM
IC50 (LS-411N, LS411N, Colon): 8720 nM
EC50 (LS-1034, LS1034, Colon): 1870 nM
GI50 (LS-1034, LS1034, Colon): 1830 nM
IC50 (LS-1034, LS1034, Colon): 1870 nM
EC50 (M059J, CNS - Glioma): 3090 nM
GI50 (M059J, CNS - Glioma): 3020 nM
IC50 (M059J, CNS - Glioma): 3090 nM
EC50 (MC116, MC116, Lymphoma): 3790 nM
GI50 (MC116, MC116, Lymphoma): 3780 nM
IC50 (MC116, MC116, Lymphoma): 3790 nM
EC50 (MC-IXC, CNS - Neuroblastoma): 4010 nM
GI50 (MC-IXC, CNS - Neuroblastoma): 4000 nM
IC50 (MC-IXC, CNS - Neuroblastoma): 4010 nM
EC50 (MCF7, MCF7, Breast): 1370 nM
GI50 (MCF7, MCF7, Breast): 1350 nM
IC50 (MCF7, MCF7, Breast): 1370 nM
EC50 (MDA-MB-231, MDA MB 231, Breast): 1470 nM
GI50 (MDA-MB-231, MDA MB 231, Breast): 1470 nM
IC50 (MDA-MB-231, MDA MB 231, Breast): 1480 nM
EC50 (MDA-MB-436, MDA-MB-436, Breast): 2680 nM
GI50 (MDA-MB-436, MDA-MB-436, Breast): 2670 nM
IC50 (MDA-MB-436, MDA-MB-436, Breast): 2690 nM
EC50 (MDA-MB-453, MDA MB 453, Breast): 780 nM
GI50 (MDA-MB-453, MDA MB 453, Breast): 770 nM
IC50 (MDA-MB-453, MDA MB 453, Breast): 780 nM
EC50 (MDA-MB-468, MDA MB 468, Breast): 2750 nM
GI50 (MDA-MB-468, MDA MB 468, Breast): 2740 nM
IC50 (MDA-MB-468, MDA MB 468, Breast): 2760 nM
EC50 [2]: 2250 nM
GI50 [2]: 2210 nM
IC50 [2]: 2260 nM
EC50 (MEG-01, MEG01, Leukemia): 7350 nM
GI50 (MEG-01, MEG01, Leukemia): 7220 nM
IC50 (MEG-01, MEG01, Leukemia): 7350 nM
EC50 (MES-SA, Soft Tissue - Sarcoma): 1230 nM
GI50 (MES-SA, Soft Tissue - Sarcoma): 1220 nM
IC50 (MES-SA, Soft Tissue - Sarcoma): 1230 nM
EC50 [3]: 9240 nM
GI50 [3]: 9160 nM
IC50 [3]: 9240 nM
EC50 [4]: 6170 nM
GI50 [4]: 6170 nM
IC50 [4]: 6170 nM
EC50 [5]: 2970 nM
GI50 [5]: 2970 nM
IC50 [5]: 2970 nM
EC50 (MOLT-3, MOLT-3, Leukemia): 2130 nM
GI50 (MOLT-3, MOLT-3, Leukemia): 2110 nM
IC50 (MOLT-3, MOLT-3, Leukemia): 2130 nM
EC50 (MOLT-16, MOLT-16, Leukemia): 1840 nM
GI50 (MOLT-16, MOLT-16, Leukemia): 1840 nM
IC50 (MOLT-16, MOLT-16, Leukemia): 1840 nM
EC50 [6]: 2230 nM
GI50 [6]: 2210 nM
IC50 [6]: 2230 nM
EC50 (MT-3, Colon): 3670 nM
GI50 (MT-3, Colon): 3660 nM
IC50 (MT-3, Colon): 3670 nM
EC50 (MV4-11, MV-4-11, Leukemia): 3580 nM
GI50 (MV4-11, MV-4-11, Leukemia): 3570 nM
IC50 (MV4-11, MV-4-11, Leukemia): 3580 nM
EC50 (MX1, Leukemia): 1290 nM
GI50 (MX1, Leukemia): 1290 nM
IC50 (MX1, Leukemia): 1290 nM
EC50 [7]: 1790 nM
GI50 [7]: 1660 nM
IC50 [7]: 1790 nM
EC50 (MeWo, Skin (Melanoma)): 1320 nM
GI50 (MeWo, Skin (Melanoma)): 1310 nM
IC50 (MeWo, Skin (Melanoma)): 1320 nM
EC50 (NALM-6, NALM-6, Leukemia): 1810 nM
GI50 (NALM-6, NALM-6, Leukemia): 1810 nM
IC50 (NALM-6, NALM-6, Leukemia): 1810 nM
EC50 (NAMALWA, Lymphoma): 3390 nM
GI50 (NAMALWA, Lymphoma): 3390 nM
IC50 (NAMALWA, Lymphoma): 3390 nM
EC50 (NCI-H69, NCI-H69, Lung - SCLC): 6300 nM
GI50 (NCI-H69, NCI-H69, Lung - SCLC): 5840 nM
IC50 (NCI-H69, NCI-H69, Lung - SCLC): 6440 nM
EC50 [8]: 3200 nM
GI50 [8]: 3180 nM
IC50 [8]: 3200 nM
GI50 (NCI-H295R, Endocrine - Adrenal gland): 13500 nM
EC50 [9]: 12100 nM
GI50 [9]: 11700 nM
IC50 [9]: 12100 nM
EC50 (NCI-H446, NCIH446, Lung - SCLC): 10300 nM
GI50 (NCI-H446, NCIH446, Lung - SCLC): 10000 nM
IC50 (NCI-H446, NCIH446, Lung - SCLC): 10300 nM
EC50 [10]: 2340 nM
GI50 [10]: 2330 nM
IC50 [10]: 2340 nM
EC50 (NCI-H508, NCI-H508, Colon): 14400 nM
GI50 (NCI-H508, NCI-H508, Colon): 14300 nM
IC50 (NCI-H508, NCI-H508, Colon): 14400 nM
EC50 [11]: 2430 nM
GI50 [11]: 2410 nM
IC50 [11]: 2430 nM
EC50 [12]: 8780 nM
GI50 [12]: 8410 nM
IC50 [12]: 8780 nM
EC50 [13]: 2280 nM
GI50 [13]: 2280 nM
IC50 [13]: 2290 nM
EC50 (NCI-H747, NCI-H747, Colon): 3090 nM
GI50 (NCI-H747, NCI-H747, Colon): 3100 nM
IC50 (NCI-H747, NCI-H747, Colon): 3110 nM
EC50 [14]: 2250 nM
GI50 [14]: 2200 nM
IC50 [14]: 2250 nM
EC50 (OCUG-1, OCUG-1, Liver): 4300 nM
GI50 (OCUG-1, OCUG-1, Liver): 4290 nM
IC50 (OCUG-1, OCUG-1, Liver): 4300 nM
EC50 (OE19, OE19, Head and Neck): 3230 nM
GI50 (OE19, OE19, Head and Neck): 3210 nM
IC50 (OE19, OE19, Head and Neck): 3230 nM
EC50 (OE21, OE21, Head and Neck): 3680 nM
GI50 (OE21, OE21, Head and Neck): 3670 nM
IC50 (OE21, OE21, Head and Neck): 3680 nM
EC50 [15]: 1530 nM
GI50 [15]: 1520 nM
IC50 [15]: 1570 nM
EC50 (PA-1, Female GU - Ovary): 4210 nM
GI50 (PA-1, Female GU - Ovary): 4210 nM
IC50 (PA-1, Female GU - Ovary): 4210 nM
EC50 (PANC-1, PANC-1, Pancreas): 2870 nM
GI50 (PANC-1, PANC-1, Pancreas): 2830 nM
IC50 (PANC-1, PANC-1, Pancreas): 2870 nM
EC50 (PC-3, Prostate): 3880 nM
GI50 (PC-3, Prostate): 3860 nM
IC50 (PC-3, Prostate): 3880 nM
EC50 (PFSK-1, PFSK-1, CNS - Glioma): 4320 nM
GI50 (PFSK-1, PFSK-1, CNS - Glioma): 4310 nM
IC50 (PFSK-1, PFSK-1, CNS - Glioma): 4330 nM
EC50 (PSN1, PSN-1, Pancreas): 2320 nM
GI50 (PSN1, PSN-1, Pancreas): 2320 nM
IC50 (PSN1, PSN-1, Pancreas): 2320 nM
EC50 (RD, Soft Tissue - Sarcoma): 810 nM
GI50 (RD, Soft Tissue - Sarcoma): 810 nM
IC50 (RD, Soft Tissue - Sarcoma): 810 nM
EC50 (RKO, Colon): 1690 nM
GI50 (RKO, Colon): 1690 nM
IC50 (RKO, Colon): 1690 nM
EC50 (RKOE6, RKOE6, Colon): 1720 nM
GI50 (RKOE6, RKOE6, Colon): 1720 nM
IC50 (RKOE6, RKOE6, Colon): 1720 nM
EC50 (RPMI-6666, RPMI 6666, Lymphoma): 3530 nM
GI50 (RPMI-6666, RPMI 6666, Lymphoma): 3440 nM
IC50 (RPMI-6666, RPMI 6666, Lymphoma): 3530 nM
EC50 [16]: 700 nM
GI50 [16]: 700 nM
IC50 [16]: 700 nM
EC50 (RPMI-8226, RPMI 8226, Myeloma): 680 nM
GI50 (RPMI-8226, RPMI 8226, Myeloma): 670 nM
IC50 (RPMI-8226, RPMI 8226, Myeloma): 680 nM
EC50 (RS4-11, RS4, 11, Leukemia): 1770 nM
GI50 (RS4-11, RS4, 11, Leukemia): 1710 nM
IC50 (RS4-11, RS4, 11, Leukemia): 1770 nM
EC50 (Raji, Lymphoma): 4600 nM
GI50 (Raji, Lymphoma): 4590 nM
IC50 (Raji, Lymphoma): 4600 nM
EC50 (Ramos, Ramos (RA 1), Lymphoma): 2960 nM
GI50 (Ramos, Ramos (RA 1), Lymphoma): 2960 nM
IC50 (Ramos, Ramos (RA 1), Lymphoma): 2960 nM
EC50 [17]: 1980 nM
GI50 [17]: 2040 nM
IC50 [17]: 2100 nM
EC50 (SCC-4, SCC-4, Head and Neck): 4660 nM
GI50 (SCC-4, SCC-4, Head and Neck): 4630 nM
IC50 (SCC-4, SCC-4, Head and Neck): 4720 nM
EC50 (SCC-9, SCC-9, Head and Neck): 3440 nM
GI50 (SCC-9, SCC-9, Head and Neck): 3440 nM
IC50 (SCC-9, SCC-9, Head and Neck): 3450 nM
EC50 (SCC-25, SCC-25, Head and Neck): 3940 nM
GI50 (SCC-25, SCC-25, Head and Neck): 3950 nM
IC50 (SCC-25, SCC-25, Head and Neck): 3960 nM
EC50 (SCaBER, Bladder): 3120 nM
GI50 (SCaBER, Bladder): 3100 nM
IC50 (SCaBER, Bladder): 3120 nM
EC50 (SH-4, Skin (Melanoma)): 1950 nM
